Results from patent US20030077628A1, “Method of screening compounds for biological activity” (priority 2002, published 2003).

Biological target: receptor B-subunit derived from the Escherichia coli O157 toxin (Bacteriophage H30, UniProt P69178)
Type: binding
Conditions: pH 7

Chain of receptor B-subunit derived from the Escherichia coli O157 toxin (P69178 21-89 limits assumed): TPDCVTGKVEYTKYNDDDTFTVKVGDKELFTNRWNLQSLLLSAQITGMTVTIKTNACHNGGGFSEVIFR

Row | SMILES | change of ligand resonances (one-bond 13C-1H splittings) in the presence of the receptor
1 | OC[C@H]1O[C@H](O[C@@H]2[C@H](O)[C@@H](O)[C@H](O[C@H]3[C@H](O)[C@@H](O)C(O)O[C@@H]3CO)O[C@@H]2CO)[C@H](O)[C@@H](O)[C@H]1O (some centres unmarked) [Galα1-4Galβ1-4Glc] | shifted
2 | OC[C@H]1O[C@@H](O[C@H]2[C@H](O)[C@@H](O)C(O)O[C@@H]2CO)[C@H](O)[C@@H](O)[C@H]1O (some centres unmarked) [Galβ1-4Glc, lactose] | unchanged
